The subject of the assay is BDF1 mice, s.c. Lewis lung carcinoma, T/C %. The assay can be described thus: NCI In Vivo Anticancer Drug Screen. Data for tumor model Lewis Lung Carcinoma (subcutaneous) in B6D2F1 (BDF1) mice. The procedure, abridged:
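Tumor-bearing mice were treated with test compound, and either survival or tumor size was recorded. Values are the treated-group measurement divided by that of the vehicle-treated control group.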

[1] abbreviates: endpoint: mean tumor weight, dose: 500.0 mg/kg/injection, schedule: Q01DX011 (ip), vehicle: other, higher = larger tumour.
[2] abbreviates: endpoint: mean tumor weight, dose: 100.0 mg/kg/injection, schedule: Q01DX011 (ip), vehicle: saline, higher = larger tumour.
Setting [3] is: endpoint: mean tumor weight, dose: 50.0 mg/kg/injection, schedule: Q01DX011 (ip), vehicle: saline, higher = larger tumour.
Where [4] appears, read: endpoint: median survival time, dose: 0.25 mg/kg/injection, schedule: Q01DX009 (ip), vehicle: Klucel (hydroxypropylcellulose) (HPC), higher = longer survival.
Setting [5] is: endpoint: median survival time, dose: 0.5 mg/kg/injection, schedule: Q01DX009 (ip), vehicle: Klucel (hydroxypropylcellulose) (HPC), higher = longer survival.
[6] abbreviates: endpoint: median survival time, dose: 1.0 mg/kg/injection, schedule: Q01DX009 (ip), vehicle: Klucel (hydroxypropylcellulose) (HPC), higher = longer survival.
[7] abbreviates: endpoint: median survival time, dose: 2.0 mg/kg/injection, schedule: Q01DX009 (ip), vehicle: Klucel (hydroxypropylcellulose) (HPC), higher = longer survival.
Setting [8] is: endpoint: median survival time, dose: 4.0 mg/kg/injection, schedule: Q01DX009 (ip), vehicle: Klucel (hydroxypropylcellulose) (HPC), higher = longer survival.

Where “and” joins values, the source holds several entries; their conditions need not be identical. Identical values can stand only once. Records with an inconclusive call do not appear.

The text below walks through data of PubChem BioAssay AID270 (DTP/NCI, 2004).

With `CCn1cnc2c(SC)nc(N)nc21`, the T/C (endpoint: mean tumor weight, dose: 100.0 mg/kg/injection, schedule: Q01DX011 (ip), vehicle: other, higher = larger tumour) is 50 % of control; the T/C (endpoint: mean tumor weight, dose: 250.0 mg/kg/injection, schedule: Q01DX011 (ip), vehicle: other, higher = larger tumour) was 60 % of control; the T/C under setting [1] is 67 % of control; the T/C (endpoint: mean tumor weight, dose: 1000.0 mg/kg/injection, schedule: Q01DX011 (ip), vehicle: other, higher = larger tumour) was 42 % of control.

`C=CC(=O)NCNC(=O)C=C`: the T/C runs as follows: (endpoint: mean tumor weight, dose: 44.0 mg/kg/injection, schedule: Q01DX011 (ip), vehicle: saline, higher = larger tumour) 101 % of control; (endpoint: mean tumor weight, dose: 66.0 mg/kg/injection, schedule: Q01DX011 (ip), vehicle: saline, higher = larger tumour) 48 % of control; under setting [2], 56 % of control.

Turning to `CC(=O)NCCSC(=O)C(=O)SCCNC(C)=O`, the T/C (endpoint: mean tumor weight, dose: 25.0 mg/kg/injection, schedule: Q01DX011 (ip), vehicle: saline, higher = larger tumour) is 95 % of control; the T/C under setting [3] is 106 % of control; the T/C under setting [2] is 67 % of control.

In the case of `CC(=O)Nc1cc2c(cc1Br)-c1ccccc1C2O` (stereo not drawn), the T/C (endpoint: mean tumor weight, dose: 24.0 mg/kg/injection, schedule: Q01DX011 (ip), vehicle: saline, higher = larger tumour) is 47 % of control and 62 % of control and 69 % of control; the T/C (endpoint: mean tumor weight, dose: 55.0 mg/kg/injection, schedule: Q01DX011 (ip), vehicle: saline, higher = larger tumour) was 31 % of control and 52 % of control and 53 % of control; the T/C (endpoint: mean tumor weight, dose: 444.0 mg/kg/injection, schedule: Q01DX011 (ip), vehicle: saline, higher = larger tumour) was 26 % of control; the T/C (endpoint: mean tumor weight, dose: 666.0 mg/kg/injection, schedule: Q01DX011 (ip), vehicle: saline, higher = larger tumour) was 19 % of control.

Take `Cc1cc(N(CCCl)CCCl)ccc1C=Nc1cccnc1`: the T/C was 104 % of control (endpoint: median survival time, dose: 25.0 mg/kg/injection, schedule: Q01DX009 (ip), vehicle: Klucel (hydroxypropylcellulose) (HPC), higher = longer survival); 95 % of control (endpoint: median survival time, dose: 25.0 mg/kg/injection, schedule: Q01DX009 (ip), vehicle: saline with Tween-80, higher = longer survival); 96 % of control (endpoint: median survival time, dose: 50.0 mg/kg/injection, schedule: Q01DX009 (ip), vehicle: Klucel (hydroxypropylcellulose) (HPC), higher = longer survival); 92 % of control (endpoint: median survival time, dose: 50.0 mg/kg/injection, schedule: Q01DX009 (ip), vehicle: saline with Tween-80, higher = longer survival); 103 % of control (endpoint: median survival time, dose: 100.0 mg/kg/injection, schedule: Q01DX009 (ip), vehicle: Klucel (hydroxypropylcellulose) (HPC), higher = longer survival); 93 % of control (endpoint: median survival time, dose: 100.0 mg/kg/injection, schedule: Q01DX009 (ip), vehicle: saline with Tween-80, higher = longer survival). For the setting “endpoint: median survival time, dose: 200.0 mg/kg/injection, schedule: Q01DX009 (ip), vehicle: Klucel (hydroxypropylcellulose) (HPC), higher = longer survival”, the T/C is 98 % of control.

On to `COC1=C(N2CC2)C(=O)C(OC)=C(N2CC2)C1=O`, for which the T/C under setting [4] is 97 % of control; the T/C under setting [5] was 106 % of control; the T/C under setting [6] was 101 % of control; the T/C under setting [7] is 111 % of control; the T/C under setting [8] was 124 % of control.

On to `CCCCn1ccnc1C`, for which the T/C reads like this: (endpoint: median survival time, dose: 1.56 mg/kg/injection, schedule: Q01DX009 (ip), vehicle: saline, higher = longer survival) 112 % of control; (endpoint: median survival time, dose: 3.13 mg/kg/injection, schedule: Q01DX009 (ip), vehicle: saline, higher = longer survival) 99 % of control; (endpoint: median survival time, dose: 12.5 mg/kg/injection, schedule: Q01DX009 (ip), vehicle: saline, higher = longer survival) 99 % of control; (endpoint: median survival time, dose: 25.0 mg/kg/injection, schedule: Q01DX009 (ip), vehicle: saline, higher = longer survival) 119 % of control; (endpoint: median survival time, dose: 50.0 mg/kg/injection, schedule: Q01DX009 (ip), vehicle: saline, higher = longer survival) 98 % of control.

Turning to `CCCCCCCCCCCCCCCCCCOC(=O)CCSCCC(=O)OCCCCCCCCCCCCCCCCCC`, the T/C is, setting by setting: (endpoint: mean tumor weight, dose: 133.0 mg/kg/injection, schedule: Q01DX011 (ip), vehicle: carboxymethylcellulose (CMC), higher = larger tumour) 117 % of control; (endpoint: mean tumor weight, dose: 200.0 mg/kg/injection, schedule: Q01DX011 (ip), vehicle: carboxymethylcellulose (CMC), higher = larger tumour) 88 % of control; (endpoint: mean tumor weight, dose: 300.0 mg/kg/injection, schedule: Q01DX011 (ip), vehicle: carboxymethylcellulose (CMC), higher = larger tumour) 101 % of control; (endpoint: mean tumor weight, dose: 450.0 mg/kg/injection, schedule: Q01DX011 (ip), vehicle: carboxymethylcellulose (CMC), higher = larger tumour) 86 % of control; under setting [1], 165 % of control; (endpoint: mean tumor weight, dose: 750.0 mg/kg/injection, schedule: Q01DX011 (ip), vehicle: other, higher = larger tumour) 121 % of control.

Turning to `O`, the T/C (endpoint: median survival time, dose: 100.0 mg/kg/injection, schedule: Q02DX009 (ip), vehicle: saline, higher = longer survival) was 91 % of control; the T/C (endpoint: median survival time, dose: 200.0 mg/kg/injection, schedule: Q02DX009 (ip), vehicle: saline, higher = longer survival) is 110 % of control; the T/C (endpoint: median survival time, dose: 600.0 mg/kg/injection, schedule: Q02DX009 (ip), vehicle: saline, higher = longer survival) is 94 % of control.

With `CC[C@H]1CN2CCc3cc(OC)c(OC)cc3[C@@H]2C[C@@H]1C[C@H]1NCCc2cc(OC)c(OC)cc21`, the T/C (endpoint: mean tumor weight, dose: 1.5 mg/kg/injection, schedule: Q01DX011 (ip), vehicle: saline, higher = larger tumour) was 86 % of control.

`COc1ccc(-c2cc(=O)c3c(OC)c(OC)c(OC)c(OC)c3o2)cc1OC`: the T/C is 55 % of control and 77 % of control under setting [3]; 62 % of control and 78 % of control (endpoint: mean tumor weight, dose: 200.0 mg/kg/injection, schedule: Q01DX011 (ip), vehicle: saline, higher = larger tumour).

On to `N=[N+]=CC(=O)OCC(N)C(=O)O` (stereo not drawn), for which the T/C is, setting by setting: (endpoint: mean tumor weight, dose: 2.5 mg/kg/injection, schedule: Q01DX011 (ip), vehicle: saline, higher = larger tumour) 76 % of control and 81 % of control; (endpoint: mean tumor weight, dose: 10.0 mg/kg/injection, schedule: Q01DX011 (ip), vehicle: saline, higher = larger tumour) 24 % of control and 31 % of control.

Take `O=P(NC12CC3CC(CC(C3)C1)C2)(N1CC1)N1CC1`: the T/C by setting is: under setting [4], 86 % of control; under setting [5], 117 % of control; under setting [6], 92 % of control; under setting [7], 104 % of control; under setting [8], 101 % of control.

Consider `COc1ccc(CN2CCCN(Cc3ccc(OC)cc3)C2c2ccc(Cl)cc2Cl)cc1`, for which the T/C is, setting by setting: (endpoint: mean tumor weight, dose: 74.0 mg/kg/injection, schedule: Q01DX011 (ip), vehicle: other, higher = larger tumour) 119 % of control; (endpoint: mean tumor weight, dose: 166.0 mg/kg/injection, schedule: Q01DX011 (ip), vehicle: other, higher = larger tumour) 111 % of control.

As to `CCCCCCCCCCCC[N+](C)(C)Cc1ccccc1`, the T/C is, setting by setting: (endpoint: median survival time, dose: 0.12 mg/kg/injection, schedule: Q01DX009 (ip), vehicle: saline, higher = longer survival) 111 % of control; (endpoint: median survival time, dose: 0.25 mg/kg/injection, schedule: Q01DX009 (ip), vehicle: saline, higher = longer survival) 94 % of control; (endpoint: median survival time, dose: 1.0 mg/kg/injection, schedule: Q01DX009 (ip), vehicle: saline, higher = longer survival) 97 % of control; (endpoint: median survival time, dose: 2.0 mg/kg/injection, schedule: Q01DX009 (ip), vehicle: saline, higher = longer survival) 97 % of control; (endpoint: median survival time, dose: 4.0 mg/kg/injection, schedule: Q01DX009 (ip), vehicle: saline, higher = longer survival) 91 % of control; (endpoint: median survival time, dose: 125.0 micrograms/kg/injection, schedule: Q01DX009 (ip), vehicle: saline, higher = longer survival) 107 % of control. Also, the T/C was 93 % of control (endpoint: median survival time, dose: 250.0 micrograms/kg/injection, schedule: Q01DX009 (ip), vehicle: saline, higher = longer survival); 103 % of control (endpoint: median survival time, dose: 1000.0 micrograms/kg/injection, schedule: Q01DX009 (ip), vehicle: saline, higher = longer survival); 109 % of control (endpoint: median survival time, dose: 2000.0 micrograms/kg/injection, schedule: Q01DX009 (ip), vehicle: saline, higher = longer survival); 107 % of control (endpoint: median survival time, dose: 4000.0 micrograms/kg/injection, schedule: Q01DX009 (ip), vehicle: saline, higher = longer survival); 96 % of control (endpoint: median survival time, dose: 8000.0 micrograms/kg/injection, schedule: Q01DX009 (ip), vehicle: saline, higher = longer survival).
